Laboratory results published in patent publication US7064120B2, “Tricyclic pyridyl carboxamides and derivatives thereof tocolytic oxytocin receptor antagonists” (Wyeth, priority 2001, dated 2006).

target: T1, human vasopressin V1a receptor subtype (Homo sapiens, UniProt P37288); assay: Vasopressin binding in CHO cell membranes expressing human vasopressin V1a subtype receptors ([3H]Manning ligand radioligand binding); conditions: 100 nM
T1 construct: host or cells: CHO cells, stably transfected (pZeoSV vector for the Thibonnier line)
T1 sequence (P37288 whole entry): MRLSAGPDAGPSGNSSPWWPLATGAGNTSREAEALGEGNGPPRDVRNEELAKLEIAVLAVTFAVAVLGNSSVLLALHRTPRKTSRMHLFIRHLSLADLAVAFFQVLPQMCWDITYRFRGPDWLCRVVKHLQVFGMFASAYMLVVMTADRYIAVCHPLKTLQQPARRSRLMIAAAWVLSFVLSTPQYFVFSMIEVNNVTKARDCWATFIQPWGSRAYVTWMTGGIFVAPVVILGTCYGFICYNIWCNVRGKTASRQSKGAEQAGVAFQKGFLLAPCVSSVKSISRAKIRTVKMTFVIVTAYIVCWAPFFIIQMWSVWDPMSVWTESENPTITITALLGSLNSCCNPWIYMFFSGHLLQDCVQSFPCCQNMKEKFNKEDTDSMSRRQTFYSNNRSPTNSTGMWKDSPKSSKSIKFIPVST
How it was run: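 Membranes from CHO cells expressing human V1a, 25–50 μg protein/well, incubated 60 min at room temperature with [3H]Manning ligand (20 μL of 8 nM stock) in 50 mM Tris-HCl pH 7.4 with BSA, MgCl2 and protease inhibitors. Filtration then scintillation counting; reported as % inhibition or IC50 (nM).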

Row | SMILES | inhibition at 0.1 µM | V1a % inhibition @ 100 nM
1 | COc1cccc(-c2cc(OC)c(C(=O)N3Cc4ccc(C(=O)N(C)CCc5ccncc5)n4Cc4ccccc43)cc2Cl)c1 [Example 133, 10-[(6-Chloro-3,3′-dimethoxy-[1,1′-biphenyl]-4-yl)carbonyl]-N-methyl-N-[2-(4-pyridinyl)ethyl]-10,11-dihydro-5H-pyrrolo[2,1-c][1,4]benzodiazepine-3-carboxamide] | 19% | 
2 | O=C(NCCc1ccccn1)c1ccc2n1Cc1ccccc1N(C(=O)c1ccc(-c3cccc4ccccc34)cc1Cl)C2 [Example 60, 10-[2-Chloro-4-(naphthalen-1-yl)benzoyl]-N-[2-(2-pyridinyl)ethyl]-10,11-dihydro-5H-pyrrolo[2,1-c][1,4]benzodiazepine-3-carboxamide] | 4% | 
3 | Cc1cc(C(=O)N2Cc3ccc(C(=O)NCc4ccccn4)n3Cc3ccccc32)ccc1-c1ccccc1C(F)(F)F [Example 35, 10-{[2-Methyl-2′-trifluoromethyl-[1,1′-biphenyl]-4-yl]carbonyl}-N-(2-pyridinylmethyl)-10,11-dihydro-5H-pyrrolo[2,1-c][1,4]benzodiazepine-3-carboxamide] | 4% | 
4 | Cc1ccccc1-c1ccc(C(=O)N2Cc3ccc(C(=O)NCc4cccnc4)n3Cc3ccccc32)cc1C [Example 37, 10-[(2,2′-Dimethyl-[1,1′-biphenyl]-4-yl)carbonyl]-N-(3-pyridinylmethyl)-10,11-dihydro-5H-pyrrolo[2,1-c][1,4]benzodiazepine-3-carboxamide] | 12% | 
5 | COc1cccc(-c2ccc(C(=O)N3Cc4ccc(C(=O)NCc5ccccn5)n4Cc4ccccc43)cc2OC)c1 [Example 33, 10-[(2,3′-Dimethoxy-[1,1′-biphenyl]-4-yl)carbonyl]-N-(2-pyridinylmethyl)-10,11-dihydro-5H-pyrrolo[2,1-c][1,4]benzodiazepine-3-carboxamide] | 23% | 
6 | COc1cccc(-c2ccc(C(=O)N3Cc4ccc(C(=O)NCc5cccnc5)n4Cc4ccccc43)cc2OC)c1 [Example 46, 10-[(2,3′-Dimethoxy-[1,1′-biphenyl]-4-yl)carbonyl]-N-(3-pyridinylmethyl)-10,11-dihydro-5H-pyrrolo[2,1-c][1,4]benzodiazepine-3-carboxamide] | 7% | 
7 | COc1ccccc1-c1ccc(C(=O)N2Cc3ccc(C(=O)NCCc4ccccn4)n3Cc3ccccc32)cc1C [Example 49, 10-[(2′-Methoxy-2-methyl-[1,1′-biphenyl]-4-yl)carbonyl]-N-[2-(2-pyridinyl)ethyl]-10,11-dihydro-5H-pyrrolo[2,1-c][1,4]benzodiazepine-3-carboxamide] | 1% | 
8 | COc1cccc(-c2ccc(C(=O)N3Cc4ccc(C(=O)NCc5cccnc5)n4Cc4ccccc43)cc2C)c1 [Example 38, 10-[(3′-Methoxy-2-methyl-[1,1′-biphenyl]-4-yl)carbonyl]-N-(3-pyridinylmethyl)-10,11-dihydro-5H-pyrrolo[2,1-c][1,4]benzodiazepine-3-carboxamide] | 0% | 
9 | CN(Cc1cccnc1)C(=O)c1ccc2n1Cc1ccccc1N(C(=O)c1ccc(-c3cccc4ccccc34)cc1Cl)C2 [Example 111, 10-[2-Chloro-4-(naphthalen-1-yl)benzoyl]-N-methyl-N-(3-pyridinylmethyl)-10,11-dihydro-5H-pyrrolo[2,1-c][1,4]benzodiazepine-3-carboxamide] | 4% | 
10 | COc1ccccc1-c1ccc(C(=O)N2Cc3ccc(C(=O)NCc4ccccn4)n3Cc3ccccc32)cc1 [Example 26, 10-[(2′-Methoxy-[1,1′-biphenyl]-4-yl)carbonyl]-N-(2-pyridinylmethyl)-10,11-dihydro-5H-pyrrolo[2,1-c][1,4]benzodiazepine-3-carboxamide] | 17% | 
11 | COc1cccc(-c2ccc(C(=O)N3Cc4ccc(C(=O)N(C)Cc5cccnc5)n4Cc4ccccc43)cc2OC)c1 [Example 110] |  | 49%
12 | COc1cc(C(=O)N2Cc3ccc(C(=O)N4CCN(c5ccccn5)CC4)n3Cc3ccccc32)ccc1-c1cccc2ccccc12 [Example 83] |  | 9%
13 | COc1ccccc1-c1ccc(C(=O)N2Cc3ccc(C(=O)NCc4cccnc4)n3Cc3ccccc32)cc1OC [Example 45, 10-[(2,2′-Dimethoxy-[1,1′-biphenyl]-4-yl)carbonyl]-N-(3-pyridinylmethyl)-10,11-dihydro-5H-pyrrolo[2,1-c][1,4]benzodiazepine-3-carboxamide] | 5% | 
14 | COc1ccccc1-c1ccc(C(=O)N2Cc3ccc(C(=O)N(C)CCc4ccccn4)n3Cc3ccccc32)cc1OC [Example 64, 10-[(2,2′-Dimethoxy-[1,1′-biphenyl]-4-yl)carbonyl]-N-methyl-N-[2-(2-pyridinyl)ethyl]-10,11-dihydro-5H-pyrrolo[2,1-c][1,4]benzodiazepine-3-carboxamide] | 21% | 
15 | COc1cc(C(=O)N2Cc3ccc(C(=O)N4CCN(c5ccncc5)CC4)n3Cc3ccccc32)ccc1-n1c(C)ccc1C [Example 146, {10-[4-(2,5-Dimethyl-1H-pyrrol-1-yl)-3-methoxybenzoyl]-10,11-dihydro-5H-pyrrolo[2,1-c][1,4]benzodiazepin-3-yl}[4-(pyridin-4-yl)-1-piperazinyl]methanone] | 11% | 
16 | O=C(NCc1cccnc1)c1ccc2n1Cc1ccccc1N(C(=O)c1ccc(-c3cccc4ccccc34)cc1Cl)C2 [Example 47, 10-[2-Chloro-4-(naphthalen-1-yl)benzoyl]-N-(3-pyridinylmethyl)-10,11-dihydro-5H-pyrrolo[2,1-c][1,4]benzodiazepine-3-carboxamide] | -1% | 
17 | COc1cccc(-c2ccc(C(=O)N3Cc4ccc(C(=O)N5CCN(c6ccncc6)CC5)n4Cc4ccccc43)cc2C)c1 [Example 115, {10-[(3′-Methoxy-2-methyl-[1,1′-biphenyl]-4-yl)carbonyl]-10,11-dihydro-5H-pyrrolo[2,1-c][1,4]benzodiazepin-3-yl}[4-(4-pyridinyl)-1-piperazinyl]methanone] | 22% | 
18 | COc1ccccc1-c1ccc(C(=O)N2Cc3ccc(C(=O)NCCc4ccccn4)n3Cc3ccccc32)cc1OC [Example 58, 10-[(2,2′-Dimethoxy-[1,1′-biphenyl]-4-yl)carbonyl]-N-[2-(2-pyridinyl)ethyl]-10,11-dihydro-5H-pyrrolo[2,1-c][1,4]benzodiazepine-3-carboxamide] | 9% | 
19 | COc1ccccc1-c1ccc(C(=O)N2Cc3ccc(C(=O)N4CCCCC4c4cccnc4)n3Cc3ccccc32)cc1OC (stereo not shown) [Example 141, {10-[(2,2′-Dimethoxy-[1,1′-biphenyl]-4-yl)carbonyl]-10,11-dihydro-5H-pyrrolo[2,1-c][1,4]benzodiazepin-3-yl}[2-(3-pyridinyl)-1-piperidinyl]methanone] | 9% | 
